{"source": "paper PMC3970082", "about": "(FEBS Open Bio, 2014)", "target": "T1, 5-aminopentaneamide amide hydrolase (Pseudomonas sp. TPU-A5, UniProt W6JNP2)", "T1 sequence (W6JNP2 1-504)": "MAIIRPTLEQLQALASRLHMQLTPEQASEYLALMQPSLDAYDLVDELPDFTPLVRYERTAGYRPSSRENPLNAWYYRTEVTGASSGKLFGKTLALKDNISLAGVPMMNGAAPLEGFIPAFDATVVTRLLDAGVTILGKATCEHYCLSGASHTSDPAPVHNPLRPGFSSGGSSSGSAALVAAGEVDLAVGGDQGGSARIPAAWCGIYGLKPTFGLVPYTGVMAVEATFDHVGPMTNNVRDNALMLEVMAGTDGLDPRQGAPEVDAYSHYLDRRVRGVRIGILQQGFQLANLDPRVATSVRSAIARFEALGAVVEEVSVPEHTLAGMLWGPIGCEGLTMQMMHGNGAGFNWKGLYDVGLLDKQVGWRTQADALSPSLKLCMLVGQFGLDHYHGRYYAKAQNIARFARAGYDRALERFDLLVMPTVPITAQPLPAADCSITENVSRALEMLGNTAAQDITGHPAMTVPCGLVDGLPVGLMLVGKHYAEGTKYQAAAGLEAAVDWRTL", "assay": "ammonia liberation", "assay_type": "biochemical", "conditions": "room temperature; purified fractions of native enzyme", "data": [{"smiles": "CCCCC(N)=O", "note": "[valeramide]", "values": [{"measurement": "ammonia liberation (indophenol reaction)", "value": "assayed at room temperature by measuring the ammonia liberated from valeramide degradation"}]}]}
